How the values were obtained:
Assay type in all cases: in vivo
[1] = tested on: barnyardgrass (Echinochloa crus-galli); assay: Test A postemergence; conditions: Echinochloa crus-galli, post-emergence, 240 h, Postemergence
How it was run: (§1)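 Preemergence directed soil spray on seeded pots, or postemergence application to plants 2–10 cm, one- to two-leaf. Solvent mixture non-phytotoxic, with surfactant. Scored ~10 d later, visually, 0–100 vs untreated.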

[2] = tested on: ryegrass, Italian (Italian ryegrass, Lolium multiflorum); assay: Test A postemergence; conditions: Lolium multiflorum, post-emergence, 240 h, Postemergence
How it was run: as §1

corn (Zea mays) = assay: Test A postemergence; conditions: Zea mays, post-emergence, 240 h, Postemergence
How it was run: as §1

[3] = tested on: pigweed (Amaranthus retroflexus); assay: Test A postemergence; conditions: Amaranthus retroflexus, post-emergence, 240 h, Postemergence
How it was run: as §1

[4] = tested on: Galium (catchweed bedstraw, Galium aparine); assay: Test A postemergence; conditions: Galium, post-emergence, 240 h, Postemergence
How it was run: as §1

[5] = tested on: ragweed (common ragweed, Ambrosia elatior); assay: Test A postemergence; conditions: Ambrosia artemisiifolia, post-emergence, 240 h, Postemergence
How it was run: as §1

Kochia (Kochia scoparia) [6] = assay: Test A postemergence; conditions: Bassia scoparia, post-emergence, 240 h, Postemergence
How it was run: as §1

[7] = tested on: wheat (Triticum aestivum); assay: Test A postemergence; conditions: Triticum aestivum, post-emergence, 240 h, Postemergence
How it was run: as §1

[8] = tested on: blackgrass (Alopecurus myosuroides); assay: Test A postemergence; conditions: Alopecurus myosuroides, post-emergence, 240 h, Postemergence
How it was run: as §1

[9] = tested on: giant foxtail (Setaria faberii); assay: Test A postemergence; conditions: Setaria faberi, post-emergence, 240 h, Postemergence
How it was run: as §1

[10] = tested on: barnyardgrass (Echinochloa crus-galli); assay: Test A preemergence; conditions: Echinochloa crus-galli, pre-emergence, 240 h, 0 to 100 scale (0 no effect, 100 complete control), read-out: Plant response rating, Barnyardgrass
How it was run: as §1

[11] = tested on: ryegrass, Italian (Italian ryegrass, Lolium multiflorum); assay: Test A preemergence; conditions: Lolium multiflorum, pre-emergence, 240 h, 0 to 100 scale (0 no effect, 100 complete control), read-out: Plant response rating, Ryegrass, Italian
How it was run: as §1

[12] = tested on: pigweed (Amaranthus retroflexus); assay: Test A preemergence; conditions: Amaranthus retroflexus, pre-emergence, 240 h, 0 to 100 scale (0 no effect, 100 complete control), read-out: Plant response rating, Pigweed
[13] = tested on: ragweed (common ragweed, Ambrosia elatior); assay: Test A preemergence; conditions: Ambrosia artemisiifolia, pre-emergence, 240 h, 0 to 100 scale (0 no effect, 100 complete control), read-out: Plant response rating, Ragweed
How it was run: as §1

Kochia (Kochia scoparia) [14] = assay: Test A preemergence; conditions: Bassia scoparia, pre-emergence, 240 h, 0 to 100 scale (0 no effect, 100 complete control), read-out: Plant response rating, Kochia
How it was run: as §1

[15] = tested on: giant foxtail (Setaria faberii); assay: Test A preemergence; conditions: Setaria faberi, pre-emergence, 240 h, 0 to 100 scale (0 no effect, 100 complete control), read-out: Plant response rating, Foxtail, Giant
How it was run: as §1

O=C1NC[C@H](c2cncs2)[C@H]1C(=O)Nc1ccccc1F [Compound 1335]
0%: pest or weed control at 125 g/ha ([1]; 125 g ai/ha, visual rating about 10 d after treatment, read-out: Barnyardgrass plant response rating (0 to 100 scale, 0 no effect, 100 complete control)) | pest or weed control at 500 g/ha ([1]; 500 g ai/ha, visual injury, 0 to 100 scale (0 no effect, 100 complete control), approx. 10 d, read-out: Plant response rating, Barnyardgrass) | pest or weed control at 125 g/ha ([2]; 125 g ai/ha, visual rating about 10 d after treatment, read-out: Ryegrass, Italian plant response rating (0 to 100 scale)) | pest or weed control at 500 g/ha ([2]; 500 g ai/ha, visual injury, 0 to 100 scale (0 no effect, 100 complete control), approx. 10 d, read-out: Plant response rating, Ryegrass, Italian) | plant injury at 125 g/ha (corn (Zea mays); 125 g ai/ha, visual rating about 10 d after treatment, read-out: Corn plant response rating (0 to 100 scale)) | Corn plant response rating (crop injury, 0 = no effect, 100 = complete kill) at 500 g/ha (corn (Zea mays); 500 g ai/ha, visual injury, 0 to 100 scale (0 no effect, 100 complete control), approx. 10 d) | pest or weed control at 125 g/ha ([3]; 125 g ai/ha, visual rating about 10 d after treatment, read-out: Pigweed plant response rating (0 to 100 scale)) | pest or weed control at 500 g/ha ([3]; 500 g ai/ha, visual injury, 0 to 100 scale (0 no effect, 100 complete control), approx. 10 d, read-out: Plant response rating, Pigweed) | pest or weed control at 125 g/ha ([4]; 125 g ai/ha, visual rating about 10 d after treatment, read-out: Galium plant response rating (0 to 100 scale)) | pest or weed control at 500 g/ha ([4]; 500 g ai/ha, visual injury, 0 to 100 scale (0 no effect, 100 complete control), approx. 10 d, read-out: Plant response rating, Galium) | pest or weed control at 125 g/ha ([5]; 125 g ai/ha, visual rating about 10 d after treatment, read-out: Ragweed plant response rating (0 to 100 scale)) | pest or weed control at 500 g/ha ([5]; 500 g ai/ha, visual injury, 0 to 100 scale (0 no effect, 100 complete control), approx. 10 d, read-out: Plant response rating, Ragweed) | pest or weed control at 125 g/ha (Kochia (Kochia scoparia) [6]; 125 g ai/ha, visual rating about 10 d after treatment, read-out: Kochia plant response rating (0 to 100 scale)) | pest or weed control at 500 g/ha (Kochia (Kochia scoparia) [6]; 500 g ai/ha, visual injury, 0 to 100 scale (0 no effect, 100 complete control), approx. 10 d, read-out: Plant response rating, Kochia) | plant injury at 125 g/ha ([7]; 125 g ai/ha, visual rating about 10 d after treatment, read-out: Wheat plant response rating (0 to 100 scale)) | plant injury at 500 g/ha ([7]; 500 g ai/ha, visual injury, 0 to 100 scale (0 no effect, 100 complete control), approx. 10 d, read-out: Plant response rating, Wheat) | pest or weed control at 125 g/ha ([8]; 125 g ai/ha, visual rating about 10 d after treatment, read-out: Blackgrass plant response rating (0 to 100 scale)) | pest or weed control at 500 g/ha ([8]; 500 g ai/ha, visual injury, 0 to 100 scale (0 no effect, 100 complete control), approx. 10 d, read-out: Plant response rating, Blackgrass) | pest or weed control at 125 g/ha ([9]; 125 g ai/ha, visual rating about 10 d after treatment, read-out: Foxtail, Giant plant response rating (0 to 100 scale)) | pest or weed control at 500 g/ha ([9]; 500 g ai/ha, visual injury, 0 to 100 scale (0 no effect, 100 complete control), approx. 10 d, read-out: Plant response rating, Foxtail, Giant) | pest or weed control at 500 g/ha ([10]; 500 g ai/ha, preemergence) | pest or weed control at 125 g/ha ([10]; Preemergence, 125 g ai/ha) | pest or weed control at 500 g/ha ([11]; 500 g ai/ha, preemergence) | pest or weed control at 125 g/ha ([11]; Preemergence, 125 g ai/ha) | pest or weed control at 500 g/ha ([12]; 500 g ai/ha, preemergence) | pest or weed control at 125 g/ha ([12]; Preemergence, 125 g ai/ha) | pest or weed control at 500 g/ha ([13]; 500 g ai/ha, preemergence) | pest or weed control at 125 g/ha ([13]; Preemergence, 125 g ai/ha) | pest or weed control at 500 g/ha (Kochia (Kochia scoparia) [14]; 500 g ai/ha, preemergence) | pest or weed control at 125 g/ha (Kochia (Kochia scoparia) [14]; Preemergence, 125 g ai/ha) | pest or weed control at 500 g/ha ([15]; 500 g ai/ha, preemergence) | pest or weed control at 125 g/ha ([15]; Preemergence, 125 g ai/ha)
